Measured values as given in paper PMC8912008, “Pharmacokinetic Study of Withanosides and Withanolides from Withania somnifera Using Ultra-High Performance Liquid Chromatography-Tandem Mass Spectrometry (UHPLC-MS/MS)” (Molecules, 2022).

Tests used:
chromosomes = tested on: chromosomes
Procedure: After completing the study, chromosomal slides were observed under 100×, and the % aberrated chromosomes were calculated.

[1] = Stability of analytes in rat plasma; settings: n = 6; for Processed sample stability (% ± SD): processed rat plasma sample, 4 h; for Bench top Stability (% ± SD) / Autosampler stability (% ± SD) / Freeze-thaw stability (% ± SD): rat plasma; for Bench top Stability (% ± SD): 25 °C for 4 h; for Freeze-thaw stability (% ± SD): three freeze/thaw cycles
Procedure: Six replicates of quality control samples were analyzed at four concentration levels (LLOQ, LQC, MQC, and HQC; n = 6) on the same day (intra-day) and repeated for three consecutive days (inter-day) (Table S2). The precision was expressed as the relative standard deviation (% RSD), and accuracy was reported as the relative error (% RE). Later, these samples were analyzed for stability testing under the following conditions: three complete freeze/thaw cycles (−80 °C to 25 °C), long-term sample storage (−80 °C for 60 days), processed sample, and bench-top (25 °C for 4 h).

in vitro = settings: rat
Source text: The everted intestinal segment was mounted on the apparatus and setting it in the beaker. The internal surface of the glass tubes serves as the mucosal compartment, and the beaker serves as the serosal compartment. Animals were humanly sacrificed by cervical dislocation followed by a midline incision. The abdominal cavity was opened carefully, and the intestine was maneuvered to identify the ileocecal junction. A 7 cm long intestinal segment distant to the ileocecal junction (5–6 cm) was excised by carefully removing the mesenteric attachments without causing any damage to the intestinal architecture. The segment was cleaned using the Kreb’s Ringer Bicarbonate (KRB) buffer medium and was stored in KRB buffer in a petri dish. The cleaned segment was then everted gently using a glass rod. Finally, a 3 cm long intestinal segment was used to perform the permeability study [49, 50].
The tissue was mounted on the apparatus and was placed in a 1000 mL beaker containing 2 mg/mL WSE suspension. The intestinal segment was perfused from the mucosal end using the KRB buffer. The apparatus (beaker with tissue) was placed on the magnetic stirrer followed by continuous stirring using a magnetic bead at 25 rpm to mimic the peristaltic movement of the stomach at 37 °C with appropriate aeration. The sample collection at different time points was carried out every 5 min interval for 1 h. The collected samples were further diluted and analyzed using LC-MS/MS.
The sample was diluted to 20-fold in ACN and injected 2 µL into LC-MS/MS. Samples were stored at −20 °C until analysis using validated UHPLC-MS/MS. The permeability was obtained by plotting the cumulative amount transported (ng) across the gut sac against time (second).
The calculation of apparent permeability (Papp) was carried out using the following Equation (1):Papp = dQ/dt × 1/A × C0(1) where Papp: apparent permeability co-efficient; dQ/dt: the cumulative amount of drug (Q) appearing in the acceptor (serosal) compartment as a function of time and was obtained from the slope of the linear portion of the amount transported-versus-time plot. A: Surface area of the intestine (cm^2) (0.18 cm as radius) and C0: Initial concentration of drug in the donor compartment (ng/mL).

[2] = In vivo pharmacokinetic study after oral WSE
Source text: It is known that the hydrophobic interior surface of the cell membrane (lipid bilayer) serves as a barrier to the passage of polar and high molecular weight molecules.
Food pellets and tap water were provided ad libitum throughout the experimentation. The protocol to carry out in vivo pharmacokinetics was approved by The Institutional Animal Ethics Committee (IAEC) of Crystal Biological Solution, Pune, Maharashtra, India. […] Eighteen animals were subdivided into three groups, (n = 6) animals in each group. Withania somnifera extract suspension was prepared in water for oral administration, and the dose was calculated based on the acute oral toxicity study (500 mg/kg; single dose). […] The separated plasma samples were transferred into Eppendorf tubes and stored at −80 °C in a deep freezer until analysis. Ten pharmacokinetic parameters were determined using PK solver 2.0, USA [45, 46, 47]. The maximum observed concentration (Cmax) and maximum observed time (Tmax) were calculated directly from the experimental results. The elimination rate constant (Kel) was calculated from the slope of the linear regression of Log concentrations as a function of time. […] The area under the curve (AUC(0–t)) was calculated from the linear curve following the trapezoidal rule, while AUC(0–∞) was calculated by adding Ct/λ, with Ct being the final measurable concentration. Oral clearance (Cl/F) was obtained from the equation Cl/F = dose/AUC(0–∞). Mean residence time (MRT) was calculated as AUMC(0–∞)/AUC(0–∞), where AUMC(0–∞) is the area under the first moment curve. […] The pharmacokinetic parameters as the average of six rats ± SD. The mean plasma concentration Vs. time curve (mean ± SD) was prepared using Prism 8.2, (GraphPad, San Diego, CA, USA).

[3] = mice, oral Withania somnifera aqueous extract 1000 mg/kg; cited from earlier work
[4] = high QC (nominal 200.50-201.50 ng/mL)
[5] = low QC (nominal 10.05-10.50 ng/mL)
[6] = male, Sprague Dawley, rat, in vivo, po, 500 mg/kg

Row | SMILES | Processed sample stability (% ± SD) [1, 4] | Processed sample stability (% ± SD) [1, 5] | Bench top Stability (% ± SD) [1, 4] | Bench top Stability (% ± SD) [1, 5] | Autosampler stability (% ± SD) [1, 4] | Autosampler stability (% ± SD) [1, 5] | Freeze-thaw stability (% ± SD) [1, 4] | Freeze-thaw stability (% ± SD) [1, 5] | Papp at 1 h, 2 mg/mL (in vitro) | further results
1 | O=P1(N(CCCl)CCCl)NCCCO1 (stereo not drawn) [Cyclophosphamide] |  |  |  |  |  |  |  |  |  | % Aberration (chromosomes): 52%; MI mitotic index (chromosomes): 52; RCG (%) relative cell growth (chromosomes): 112%; RMI (%) relative mitotic index (chromosomes): 85%; Ratio with Negative (chromosomes): 10.40
2 | CC1=C(C)C(=O)O[C@@H]([C@@H](C)[C@@]2(O)CC[C@H]3[C@@H]4[C@@H]5O[C@@H]5[C@@]5(O)CC=CC(=O)[C@]5(C)[C@H]4CC[C@@]32C)C1 [Withanone] | 99.56 ± 4.91% | 112.07 ± 37.93% | 98.87 ± 9.47% | 96.31 ± 6.27% | 111.25 ± 4.86% | 109.47 ± 4.01% | 98.14 ± 4.74% | 104.24 ± 7.98% | 0.0317 ×10⁻⁶ cm/s | concentration in plasma ([2]; rat plasma after WSE 500 mg/kg oral, LLOQ 3 ng/mL): below LLOQ
3 | CC1=C(C)C(=O)O[C@@H]([C@@H](C)[C@H]2CC[C@H]3[C@@H]4[C@@H]5O[C@@H]5[C@@]5(O)CC=CC(=O)[C@]5(C)[C@H]4CC[C@]23C)C1 [Withanolide B] | 95.01 ± 5.83% | 113.48 ± 47.73% | 96.83 ± 6.66% | 95.51 ± 5.04% | 97.26 ± 3.36% | 98.84 ± 4.54% | 93.48 ± 6.55% | 116.31 ± 36.76% | 0.0131 ×10⁻⁶ cm/s | 
4 | CC1=C(C)C(=O)O[C@@H]([C@](C)(O)[C@H]2CC[C@H]3[C@@H]4[C@@H]5O[C@@H]5[C@@]5(O)CC=CC(=O)[C@]5(C)[C@H]4CC[C@]23C)C1 [Withanolide A] | 99.36 ± 6.79% | 128.43 ± 68.06% | 103.63 ± 6.10% | 102.00 ± 7.99% | 105.04 ± 3.63% | 105.35 ± 3.83% | 98.89 ± 4.24% | 102.18 ± 6.01% | 0.0665 ×10⁻⁶ cm/s | plasma half-life (t1/2) [3]: 45.22 ± 9.95 min; AUC(0-inf) [2, 6]: 7.53 ± 1.83 ng·h/mL; AUC(0-t) [2, 6]: 4.18 ± 1.03 ng·h/mL; Cmax [2, 6]: 7.28 ± 3.34 ng/mL; MRT inf [2, 6]: 75 ± 34.3 min; Tmax [2, 6]: 20 ± 7.74 min; half-life [2, 6]: 43.7 ± 25.4 min; k el [2, 6]: 0.000391 s⁻¹; oral clearance (Cl/F) ([2]; rat, in vivo, po, 500 mg/kg): 0.356 ± 0.090 (mg/kg)/(ng/mL)/h
